{"source": "patent US5393869A", "about": "“Parathyroid hormone derivatives” (Takeda Chemical Industries, Ltd., priority 1990, dated 1995)", "note": "Starred links: 1 amine or outer side, 2 acyl side, 3 side chain; linkers in the order of their positions; H or OH if unused. Non-standard residues stand in square brackets, D forms with d. Residues, ends and D or L forms follow the SMILES beside them. No end group written: not given here. X1 = O=C([C@H](Cc1c(C2SCCS2)[nH]c2ccccc12)N[*:1])[*:2]"}
{"target": "T1, PTH receptor (Mus musculus, UniProt P41593)", "T1 construct": "a mouse cranial bone-derived osteoblast-like cell strain, MC3T3-EI cells, cultivated on a 96-well multiplate; endogenous in cells; host or cells: MC3T3-E1 mouse osteoblast-like cells", "T1 sequence (P41593 27-591)": "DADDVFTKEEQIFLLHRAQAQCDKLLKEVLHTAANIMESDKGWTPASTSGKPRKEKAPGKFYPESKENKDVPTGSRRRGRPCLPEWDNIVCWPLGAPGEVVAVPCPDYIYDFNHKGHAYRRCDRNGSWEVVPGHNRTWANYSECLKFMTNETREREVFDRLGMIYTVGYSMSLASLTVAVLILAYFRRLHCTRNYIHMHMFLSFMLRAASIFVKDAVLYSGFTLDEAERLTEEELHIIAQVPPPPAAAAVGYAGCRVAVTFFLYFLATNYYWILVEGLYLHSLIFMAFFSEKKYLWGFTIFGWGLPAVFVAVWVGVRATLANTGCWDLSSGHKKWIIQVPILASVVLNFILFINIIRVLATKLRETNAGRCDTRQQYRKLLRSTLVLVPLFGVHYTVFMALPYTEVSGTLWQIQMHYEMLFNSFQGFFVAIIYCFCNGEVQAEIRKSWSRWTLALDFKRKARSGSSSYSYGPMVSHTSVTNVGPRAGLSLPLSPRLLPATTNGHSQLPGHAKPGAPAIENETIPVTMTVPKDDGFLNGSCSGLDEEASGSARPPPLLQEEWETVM", "assay": "cAMP production by PTH (1-34) analogues in MC3T3-EI osteoblast-like cells", "type": "cell-based", "details": "cAMP production, 0.01-100 nM analogue, room temperature 30 minutes, hPTH(1-34) = 1.00", "protocol": "(§1) The biological activity of the peptide analogues was evaluated by a modified version of the method reported by Shigeno et al. in The Journal of Biological Chemistry 263, 18369-18377 (1988). A culture solution (Hank's solution, containing 20 mM N-2-hydroxyethylpiperazine-N'-2-ethanesulfonic acid (HEPES), 0.1% bovine serum albumin and 0.5 mM isobutylmethyl-xanthine) containing 0.01, 0.1, 1, 10 or 100 nM analogue was added in an amount of 100 μto a mouse cranial bone-derived osteoblast-like cell strain, MC3T3-EI cells, cultivated on a 96-well multiplate (Nunclon, Nunc), followed by reaction at room temperature for 30 minutes. After addition of 100 μof 0.2N hydrochloric acid, the mixture was immersed in boiling water for 2.5 minutes, and cyclic adenosine monophosphate (cAMP) produced by a PTH receptor was extracted from the cells. The total cAMP in the culture solution and the cells was assayed using a commercial radioimmunoassay kit (cyclic AMP [^125 I] kit \"Du Pont-Daiichi\", Daiichi Kagaku Yakuhin)."}
{"compound": "CC[C@H](C)[C@H](NC(=O)[C@H](CCC(=O)O)NC(=O)[C@H](CO)NC(=O)[C@@H](NC(=O)[C@@H](N)CO)C(C)C)C(=O)N[C@@H](CCC(N)=O)C(=O)N[C@@H](CC(C)C)C(=O)N[C@@H](CCSC)C(=O)N[C@@H](Cc1c[nH]cn1)C(=O)N[C@@H](CC(N)=O)C(=O)N[C@@H](CC(C)C)C(=O)N[C@H](Cc1ccc2ccccc2c1)C(=O)N[C@@H](CCCCN)C(=O)N[C@@H](Cc1c[nH]cn1)C(=O)N[C@@H](CC(C)C)C(=O)N[C@@H](CC(N)=O)C(=O)N[C@@H](CO)C(=O)N[C@@H](CCSC)C(=O)N[C@@H](CCC(=O)O)C(=O)N[C@@H](CCCNC(=N)N)C(=O)N[C@H](C(=O)N[C@@H](CCC(=O)O)C(=O)N[C@@H](Cc1c[nH]c2ccccc12)C(=O)N[C@@H](CC(C)C)C(=O)N[C@@H](CCCNC(=N)N)C(=O)N[C@@H](CCCCN)C(=O)N[C@@H](CCCCN)C(=O)N[C@@H](CC(C)C)C(=O)N[C@@H](CCC(N)=O)C(=O)N[C@@H](CC(=O)O)C(=O)N[C@H](C(=O)N[C@@H](Cc1c[nH]cn1)C(=O)N[C@@H](CC(N)=O)C(=O)N[C@@H](Cc1ccccc1)C(N)=O)C(C)C)C(C)C", "note": "[(3-(2-naphthyl)-D-Ala^12)hPTH(1-34)NH2]", "Biological Activity (Represented by Relative Activity to hPTH(1-34))": 0.9}
{"compound": "CC[C@H](C)[C@H](NC(=O)[C@H](CCC(=O)O)NC(=O)[C@H](CO)NC(=O)[C@@H](NC(=O)[C@@H](N)CO)C(C)C)C(=O)N[C@@H](CCC(N)=O)C(=O)N[C@@H](CC(C)C)C(=O)N[C@@H](CCSC)C(=O)N[C@@H](Cc1c[nH]cn1)C(=O)N[C@@H](CC(N)=O)C(=O)N[C@@H](CC(C)C)C(=O)NCC(=O)N[C@@H](CCCCN)C(=O)N[C@@H](Cc1c[nH]cn1)C(=O)N[C@@H](CC(C)C)C(=O)N[C@@H](CC(N)=O)C(=O)N[C@@H](CO)C(=O)N[C@@H](CCSC)C(=O)N[C@@H](CCCNC(=N)N)C(=O)N[C@@H](CCCNC(=N)N)C(=O)N[C@@H](CCCNC(=N)N)C(=O)N[C@@H](CCC(=O)O)C(=O)N[C@@H](Cc1c(C2SCCS2)[nH]c2ccccc12)C(=O)N[C@@H](CC(C)C)C(=O)N[C@@H](CCCNC(=N)N)C(=O)N[C@@H](CCCCN)C(=O)N[C@@H](CCCCN)C(=O)N[C@@H](CC(C)C)C(=O)N[C@@H](CCC(N)=O)C(=O)N[C@@H](CC(=O)O)C(=O)N[C@H](C(=O)N[C@@H](Cc1c[nH]cn1)C(=O)N[C@@H](CC(N)=O)C(=O)N[C@@H](Cc1ccccc1)C(N)=O)C(C)C", "note": "[(Arg^19,21,2-(1,3-dithiolan-2-yl)-Trp^23)hPTH(1-34)NH2] (H-SVSEIQLMHNLGKHLNSMRRRE[X1]LRKKLQDVHNF-NH2)", "Biological Activity (Represented by Relative Activity to hPTH(1-34))": 1.7}
{"compound": "SVSEIQLLHNFGKHLNSLERVEWLRKKLQDVHNF-NH2 [[Leu^8, Phe^11, Leu^18] hPTH (1-34)NH2, (Leu^8, Phe^11,Leu^18)hPTH(1-34)NH2]", "Biological Activity (Represented by Relative Activity to hPTH(1-34))": 0.9}
{"compound": "CC[C@H](C)[C@H](NC(=O)[C@H](CCC(=O)O)NC(=O)[C@H](CO)NC(=O)[C@@H](NC(=O)[C@@H](N)CO)C(C)C)C(=O)N[C@@H](CCC(N)=O)C(=O)N[C@@H](CC(C)C)C(=O)N[C@@H](CCSC)C(=O)N[C@@H](Cc1c[nH]cn1)C(=O)N[C@@H](CC(N)=O)C(=O)N[C@@H](Cc1ccccc1)C(=O)NCC(=O)N[C@@H](CCCCN)C(=O)N[C@@H](Cc1c[nH]cn1)C(=O)N[C@@H](CC(C)C)C(=O)N[C@@H](CC(N)=O)C(=O)N[C@@H](CO)C(=O)N[C@@H](CCSC)C(=O)N[C@@H](CCC(=O)O)C(=O)N[C@@H](CCCNC(=N)N)C(=O)N[C@H](C(=O)N[C@@H](CCC(=O)O)C(=O)N[C@@H](Cc1c[nH]c2ccccc12)C(=O)N[C@@H](CC(C)C)C(=O)N[C@@H](CCCNC(=N)N)C(=O)N[C@@H](CCCCN)C(=O)N[C@@H](CCCCN)C(=O)N[C@@H](CC(C)C)C(=O)N[C@@H](CCC(N)=O)C(=O)N[C@@H](CC(=O)O)C(=O)N[C@H](C(=O)N[C@@H](Cc1c[nH]cn1)C(=O)N[C@@H](CC(N)=O)C(=O)N[C@@H](Cc1ccccc1)C(=O)O)C(C)C)C(C)C", "note": "[[Phe^11] hPTH (1-34), (Phe^11)hPTH(1-34)]", "Biological Activity (Represented by Relative Activity to hPTH(1-34))": 1.1}
{"compound": "CC[C@H](C)[C@H](NC(=O)[C@H](CCC(=O)O)NC(=O)[C@H](CO)NC(=O)[C@@H](NC(=O)[C@@H](N)CO)C(C)C)C(=O)N[C@@H](CCC(N)=O)C(=O)N[C@@H](CC(C)C)C(=O)N[C@@H](CCSC)C(=O)N[C@@H](Cc1c[nH]cn1)C(=O)N[C@@H](CC(N)=O)C(=O)N[C@@H](CC(C)C)C(=O)NCC(=O)N[C@@H](CCCCN)C(=O)N[C@@H](Cc1c[nH]cn1)C(=O)N[C@@H](CC(C)C)C(=O)N[C@@H](CC(N)=O)C(=O)N[C@@H](CO)C(=O)N[C@@H](CCSC)C(=O)N[C@@H](CCC(=O)O)C(=O)N[C@@H](CCCNC(=N)N)C(=O)N[C@H](C(=O)N[C@@H](CCC(=O)O)C(=O)N[C@@H](Cc1c[nH]c2ccccc12)C(=O)N[C@@H](CC(C)C)C(=O)N[C@@H](Cc1c[nH]cn1)C(=O)N[C@@H](CCCCN)C(=O)N[C@@H](CCCCN)C(=O)N[C@@H](CC(C)C)C(=O)N[C@@H](CCC(N)=O)C(=O)N[C@@H](CC(=O)O)C(=O)N[C@H](C(=O)N[C@@H](Cc1c[nH]cn1)C(=O)N[C@@H](CC(N)=O)C(=O)N[C@@H](Cc1ccccc1)C(=O)O)C(C)C)C(C)C", "note": "[[His^25] hPTH (1-34), (His^25)hPTH(1-34)]", "Biological Activity (Represented by Relative Activity to hPTH(1-34))": 1.0}
{"compound": "CC[C@H](C)[C@H](NC(=O)[C@H](CCC(=O)O)NC(=O)[C@H](CO)NC(=O)[C@@H](NC(=O)[C@@H](N)CO)C(C)C)C(=O)N[C@@H](CCC(N)=O)C(=O)N[C@@H](CC(C)C)C(=O)N[C@@H](CCSC)C(=O)N[C@@H](Cc1c[nH]cn1)C(=O)N[C@@H](CC(N)=O)C(=O)N[C@@H](CC(C)C)C(=O)NCC(=O)N[C@@H](CCCCN)C(=O)N[C@@H](Cc1c[nH]cn1)C(=O)N[C@@H](CC(C)C)C(=O)N[C@@H](CC(N)=O)C(=O)N[C@@H](CO)C(=O)N[C@@H](CCSC)C(=O)N[C@@H](CCC(=O)O)C(=O)N[C@@H](CCCNC(=N)N)C(=O)N[C@H](C(=O)N[C@@H](CCC(=O)O)C(=O)N[C@@H](Cc1c[nH]c2ccccc12)C(=O)N[C@@H](CC(C)C)C(=O)N[C@@H](CCCNC(=N)N)C(=O)N[C@@H](CCCCN)C(=O)N[C@@H](CCCCN)C(=O)N[C@@H](CC(C)C)C(=O)N[C@@H](CCC(N)=O)C(=O)N[C@@H](CC(=O)O)C(=O)N[C@H](C(=O)N[C@@H](Cc1c[nH]cn1)C(=O)N[C@@H](CC(N)=O)C(=O)N[C@@H](Cc1ccccc1)C(=O)O)C(C)C)C(C)C", "note": "[hPTH (1-34), hPTH(1-34), reference compound]", "Biological Activity (Represented by Relative Activity to hPTH(1-34))": 1.00}
{"compound": "CC[C@H](C)[C@H](NC(=O)[C@H](CCC(=O)O)NC(=O)[C@H](CO)NC(=O)[C@@H](NC(=O)[C@@H](N)CO)C(C)C)C(=O)N[C@@H](CCC(N)=O)C(=O)N[C@@H](CC(C)C)C(=O)N[C@@H](CCSC)C(=O)N[C@@H](Cc1c[nH]cn1)C(=O)N[C@@H](CC(N)=O)C(=O)N[C@@H](CC(C)C)C(=O)NCC(=O)N[C@@H](CCCCN)C(=O)N[C@@H](Cc1c[nH]cn1)C(=O)N[C@@H](CC(C)C)C(=O)N[C@@H](CC(N)=O)C(=O)N[C@@H](CO)C(=O)N[C@@H](CC(C)C)C(=O)N[C@@H](CCC(=O)O)C(=O)N[C@@H](CCCNC(=N)N)C(=O)N[C@H](C(=O)N[C@@H](CCC(=O)O)C(=O)N[C@@H](Cc1c[nH]c2ccccc12)C(=O)N[C@@H](CC(C)C)C(=O)N[C@@H](CCCNC(=N)N)C(=O)N[C@@H](CCCCN)C(=O)N[C@@H](CCCCN)C(=O)N[C@@H](CC(C)C)C(=O)N[C@@H](CCC(N)=O)C(=O)N[C@@H](CC(=O)O)C(=O)N[C@H](C(=O)N[C@@H](Cc1c[nH]cn1)C(=O)N[C@@H](CC(N)=O)C(=O)N[C@@H](Cc1ccccc1)C(=O)O)C(C)C)C(C)C", "note": "[[Leu^18] hPTH (1-34), (Leu^18)hPTH(1-34)]", "Biological Activity (Represented by Relative Activity to hPTH(1-34))": 0.4}
{"target": "T1, PTH receptor", "assay": "cAMP production by PTH (1-34) analogues in MC3T3-EI osteoblast-like cells", "type": "cell-based", "details": "human PTH (1-34) added as a standard, 0.01-100 nM", "protocol": "as §1"}
{"compound": "CC[C@H](C)[C@H](NC(=O)[C@H](CCC(=O)O)NC(=O)[C@H](CO)NC(=O)[C@@H](NC(=O)[C@@H](N)CO)C(C)C)C(=O)N[C@@H](CCC(N)=O)C(=O)N[C@@H](CC(C)C)C(=O)N[C@@H](CCSC)C(=O)N[C@@H](Cc1c[nH]cn1)C(=O)N[C@@H](CC(N)=O)C(=O)N[C@@H](CC(C)C)C(=O)NCC(=O)N[C@@H](CCCCN)C(=O)N[C@@H](Cc1c[nH]cn1)C(=O)N[C@@H](CC(C)C)C(=O)N[C@@H](CC(N)=O)C(=O)N[C@@H](CO)C(=O)N[C@@H](CCSC)C(=O)N[C@@H](CCC(=O)O)C(=O)N[C@@H](CCCNC(=N)N)C(=O)N[C@H](C(=O)N[C@@H](CCC(=O)O)C(=O)N[C@@H](Cc1c[nH]c2ccccc12)C(=O)N[C@@H](CC(C)C)C(=O)N[C@@H](CCCNC(=N)N)C(=O)N[C@@H](CCCCN)C(=O)N[C@@H](CCCCN)C(=O)N[C@@H](CC(C)C)C(=O)N[C@@H](CCC(N)=O)C(=O)N[C@@H](CC(=O)O)C(=O)N[C@H](C(=O)N[C@@H](Cc1c[nH]cn1)C(=O)N[C@@H](CC(N)=O)C(=O)N[C@@H](Cc1ccccc1)C(=O)O)C(C)C)C(C)C", "note": "[hPTH (1-34), hPTH(1-34), reference compound]", "cAMP production of the standard": "increase in cAMP production depending on the concentration"}
